Laboratory results as given in the supplement of paper PMC10627819.

Key:
[1] = system: S. pneumoniae D39V; assay: fitness (endpoint OD595 vs no drug) (fraction); higher = more growth
In short: (§1)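 At 37 °C, bacteria in TSB, LB Lennox or CY were grown in 384-well plates from a starting OD595 of 0.01. OD595 was measured every 30 min for 14 h, with the first reading used as background. Fitness is the optical density at the switch to stationary phase as a fraction of the robust mean of no-drug control wells, capped at 1.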

[2] = system: B. subtilis 168; assay: as above
In short: as §1

[3] = system: S. aureus DSM 20231; assay: Bliss interaction score (quartile over a dose matrix) (fitness difference); higher = more antagonism (negative = synergy)
In short: (§2)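 Fitness is OD595 at stationary-phase entry relative to the plate's robust no-drug mean, capped at 1. Single-drug fitness was inferred from combinations. The Bliss score is observed minus product-expected fitness, summarised by quartiles over technical, biological and donor/recipient replicates.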

[4] = system: S. aureus Newman; assay: as above
In short: as §2

[5] = system: S. pneumoniae D39V; assay: as above
In short: as §2

[6] = system: B. subtilis 168; assay: as above
In short: as §2
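For Bliss interaction score (quartile over a dose matrix) in this document: first quartile when negative (synergy) and third quartile when positive (antagonism).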

CC(=O)NC[C@H]1CN(c2ccc(N3CCOCC3)c(F)c2)C(=O)O1 [Linezolid] + CN(C)c1cc(NC(=O)CNC(C)(C)C)c(O)c2c1C[C@H]1C[C@H]3[C@H](N(C)C)C(O)=C(C(N)=O)C(=O)[C@@]3(O)C(O)=C1C2=O [Tigecycline]
Conditions | fitness
[1], first compound 0.105 µg/mL, partner 0.65 µg/mL | 0.829
[1], first compound 0.105 µg/mL, partner 1.3 µg/mL | 0.785
[1], first compound 0.105 µg/mL, partner 2.6 µg/mL | 0.801
[1], first compound 0.2 µg/mL, partner 0.65 µg/mL | 0.712
[1], first compound 0.2 µg/mL, partner 1.3 µg/mL | 0.694
[1], first compound 0.2 µg/mL, partner 2.6 µg/mL | 0.692
[1], first compound 0.21 µg/mL, partner 0.65 µg/mL | 0.718
[1], first compound 0.21 µg/mL, partner 1.3 µg/mL | 0.71
[1], first compound 0.21 µg/mL, partner 2.6 µg/mL | 0.66
[1], first compound 0.4 µg/mL, partner 0.65 µg/mL | 0.588
[1], first compound 0.4 µg/mL, partner 1.3 µg/mL | 0.582
[1], first compound 0.4 µg/mL, partner 2.6 µg/mL | 0.552
[1], first compound 0.42 µg/mL, partner 0.65 µg/mL | 0.393
[1], first compound 0.42 µg/mL, partner 1.3 µg/mL | 0.366
[1], first compound 0.42 µg/mL, partner 2.6 µg/mL | 0.323
[1], first compound 0.8 µg/mL, partner 0.65 µg/mL | 0.252
[1], first compound 0.8 µg/mL, partner 1.3 µg/mL | 0.273
[1], first compound 0.8 µg/mL, partner 2.6 µg/mL | 0.275
[2], first compound 0.125 µg/mL, partner 0.039 µg/mL | 0.542
[2], first compound 0.125 µg/mL, partner 0.078 µg/mL | 0.537
[2], first compound 0.125 µg/mL, partner 0.156 µg/mL | 0.543
[2], first compound 0.25 µg/mL, partner 0.078 µg/mL | 0.0754
[2], first compound 0.25 µg/mL, partner 0.156 µg/mL | 0.0704
[2], first compound 0.5 µg/mL, partner 0.039 µg/mL | 0.0624
[2], first compound 0.5 µg/mL, partner 0.078 µg/mL | 0.0638
[2], first compound 0.5 µg/mL, partner 0.156 µg/mL | 0.0364

fitness, [2], one replicate
Conditions | partner 0.039 µg/mL | partner 0.078 µg/mL | partner 0.125 µg/mL | partner 0.156 µg/mL | partner 0.25 µg/mL | partner 0.5 µg/mL
first compound 0.0625 µg/mL | 0.872 | 0.848 | – | 0.896 | – | –
first compound 0.125 µg/mL | – | – | ≥ 1 | – | 0.871 | 0.909
first compound 0.25 µg/mL | – | – | 0.906 | – | 0.839 | 0.782
first compound 0.5 µg/mL | – | – | 0.214 | – | 0.0983 | 0.111

Conditions | Bliss interaction score
[3] | -0.0817
[4] | -0.0561
[5] | -0.158
[6] | 0.11

CC(=O)NC[C@H]1CN(c2ccc(N3CCOCC3)c(F)c2)C(=O)O1 [Linezolid] + CN[C@@H]1[C@H](O[C@H]2[C@H](O[C@H]3[C@H](O)[C@@H](O)[C@H](N=C(N)N)[C@@H](O)[C@@H]3N=C(N)N)O[C@@H](C)[C@]2(O)C=O)O[C@@H](CO)[C@H](O)[C@H]1O [Streptomycin]
fitness
Conditions | partner 2 µg/mL | partner 4 µg/mL | partner 8 µg/mL
[1], first compound 0.105 µg/mL | 0.763 | 0.752 | 0.803
[1], first compound 0.2 µg/mL | – | 0.781 | 0.684
[1], first compound 0.21 µg/mL | 0.655 | 0.683 | 0.719
[1], first compound 0.4 µg/mL | – | 0.625 | 0.56
[1], first compound 0.42 µg/mL | 0.376 | 0.337 | 0.307
[1], first compound 0.8 µg/mL | – | 0.283 | 0.233
[2], first compound 0.125 µg/mL | 0.543 | 0.454 | 0.0968
[2], first compound 0.25 µg/mL | 0.142 | 0.0931 | 0.0559
[2], first compound 0.5 µg/mL | 0.0384 | 0.0468 | 0.0218

fitness, one replicate
Conditions | partner 2 µg/mL | partner 4 µg/mL | partner 8 µg/mL | partner 16 µg/mL
[1], first compound 0.2 µg/mL | 0.826 | – | – | 0.584
[1], first compound 0.4 µg/mL | 0.659 | – | – | 0.41
[1], first compound 0.8 µg/mL | 0.292 | – | – | 0.163
[2], first compound 0.0625 µg/mL | 0.938 | 0.556 | 0.0308 | –

Conditions | Bliss interaction score
[3] | -0.0536
[4] | -0.0504
[5] | -0.112
[6] | 0.0492
